Values quoted from earlier work as cited in US11564963B2, “Topical compositions, process of large-scale manufacture, and method of use” (Progeneron, LLC, priority 2017, dated 2023).
Values after ≈ are worked out from the molar mass of the structure shown.

Columns and labels:
[1] = rats
[2] = tested on: Gram-negative bacteria and fungi
[3] = 20° C.

OCc1ccccc1 [Benzyl Alcohol]
LD50 [1]: 1.2 gm/kg

[H]/N=C(\N/C(=N/[H])NCCCCCCNC(=N)NC(=N)Nc1ccc(Cl)cc1)Nc1ccc(Cl)cc1 [Chlorhexidine]
concentrations required for Gram-negative bacteria and fungi [2]: 10 to 73 µg/mL

NC(=O)c1cccnc1 [Niacinamide]
solubility in water [3]: 691 mg/mL (≈ 5660 mM) | pKa: about 3.35
